In US12226401B2, “Molecular genetic approach to treatment and diagnosis of alcohol and drug dependence” (priority 2010, dated 2025):
Where two headings read alike, the source gives them in different places.

Experiments:
[1] = dose of 50 mg/day; cited from earlier work
[2] = cited from earlier work
[3] = system: methamphetamine dependent subjects; type: in vivo, human
Procedure: Methods—The study was conducted at 8 sites, 140 subjects consented, screened for study eligibility and met DSM-IV criteria for methamphetamine dependence. Subjects were randomized to topiramate or placebo at 50 mg, escalating to 200 mg topiramate daily over weeks 1-5, and 200 mg daily over weeks 6-12. The primary outcome measure was abstinence from methamphetamine during study weeks 6 through 12. Methamphetamine use was determined using qualitative urine testing at a central laboratory. The primary outcome was analyzed using a Generalized Estimating Equation (GEE) model during weeks 6 through 12. Secondary outcomes included use reduction compared to baseline, relapse rate for subjects with negative urine at randomization, and craving. Blood samples were collected for genetic markers to examine the effects of topiramate on gene expression and to correlate genetic subtypes with response to treatment. RNA samples were collected from whole blood for 50 topiramate- and 49 placebo-treated individuals at baseline and weeks 8 and 12. Genome-wide expression profiles between positive and negative responders for Weeks 8 and 12 from placebo- and topiramate-treated groups were compared.

Structure (SMILES) | Individuals in alcohol trials unable to tolerate naltrexone [1] | Cognitive impairment reported by individuals who take topiramate ([2]; general population) [%] | Occurrence rate of cognitive impairment ([2]; substance abuse field) | Treatment effect on primary outcome variable (abstinence from methamphetamine, weeks 6-12) ([3]; all subjects) | Treatment effect, exploratory analysis ([3]; subjects (n=26) with negative urine prior to randomization, p=0.02) | Treatment effect, exploratory analysis ([3]; subjects (n=35) whose baseline use was <18 days out of previous 30, p=0.03)
Cl.O=C1CC[C@@]2(O)[C@H]3Cc4ccc(O)c5c4[C@@]2(CCN3CC2CC2)[C@H]1O5 [naltrexone, 17-(Cyclopropylmethyl)-4,5a-epoxy-3,14-dihydroxymorphinan-6-one hydrochloride] | about 15% | – | – | – | – | –
CC1(C)O[C@@H]2[C@@H](CO[C@@]3(COS(N)(=O)=O)OC(C)(C)O[C@@H]23)O1 [topiramate, 2,3:4,5-Bis-O-(1-methylethylidene)-beta-D-fructopyranose sulfamate] | – | 2.4 | about 18.7% | no significant treatment effect | significant treatment effect | significant treatment effect
